In PubChem BioAssay AID246 (DTP/NCI, 2004):
Several values for one entry are separate records, joined by “and”; a condition that tells them apart may be missing. Equal entries are not always repeated. Toxic doses and inconclusive results are not listed.

System: BDF1 mice, P1081 chloroleukemia ip, survival T/C
Experiment: NCI In Vivo Anticancer Drug Screen. Data for tumor model P1081 Chloroleukemia (intraperitoneal) in B6D2F1 (BDF1) mice
Conditions: endpoint: mean survival time, higher = longer survival
Protocol: The antitumor activity of compounds was measured in mice bearing transplantable tumors. Survival or tumor size were measured and the results are expressed as the measurement made in the treated group (T) divided by the measurement made in the vehicle treated control group (C). The tumor model used in this assay is P1081 Chloroleukemia (intraperitoneal) in B6D2F1 (BDF1) mice

[1] = dose: 6.3 mg/kg/injection, schedule: Q01DX Z (ip), vehicle: saline
[2] = dose: 45.0 mg/kg/injection, schedule: Q01DX010 (ip), vehicle: saline

## O[C@H](CN1CC1)[C@@H](O)CN1CC1
dose: 0.12 mg/kg/injection, schedule: Q01DX Z (ip), vehicle: carboxymethylcellulose (CMC)
  T/C: 193 % of control
dose: 0.25 mg/kg/injection, schedule: Q01DX Z (ip), vehicle: carboxymethylcellulose (CMC)
  T/C: 204 % of control
dose: 0.5 mg/kg/injection, schedule: Q01DX Z (ip), vehicle: carboxymethylcellulose (CMC)
  T/C: 117 % of control
dose: 16.0 micrograms/kg/injection, schedule: Q01DX Z (ip), vehicle: carboxymethylcellulose (CMC)
  T/C: 100 % of control
dose: 62.5 micrograms/kg/injection, schedule: Q01DX010 (ip), vehicle: saline
  T/C: 316 % of control
dose: 125.0 micrograms/kg/injection, schedule: Q01DX010 (ip), vehicle: saline
  T/C: 210 % of control and 261 % of control
dose: 125.0 micrograms/kg/injection, schedule: Q01DX Z (ip), vehicle: carboxymethylcellulose (CMC)
  T/C: 157 % of control
dose: 250.0 micrograms/kg/injection, schedule: Q01DX010 (ip), vehicle: saline
  T/C: 288 % of control
dose: 500.0 micrograms/kg/injection, schedule: Q01DX010 (ip), vehicle: saline
  T/C: 150 % of control and 177 % of control

## CC[C@@H](c1ccc(O)cc1)[C@@H](CC)c1ccc(O)cc1
dose: 62.5 mg/kg/injection, schedule: Q01DX Z (sc), vehicle: steriod suspending solution
  T/C: 101 % of control
dose: 125.0 mg/kg/injection, schedule: Q01DX Z (sc), vehicle: steriod suspending solution
  T/C: 104 % of control
dose: 250.0 mg/kg/injection, schedule: Q01DX Z (sc), vehicle: steriod suspending solution
  T/C: 108 % of control and 118 % of control and 105 % of control
dose: 500.0 mg/kg/injection, schedule: Q01DX Z (sc), vehicle: steriod suspending solution
  T/C: 108 % of control and 112 % of control and 103 % of control
dose: 1000.0 mg/kg/injection, schedule: Q01DX Z (sc), vehicle: steriod suspending solution
  T/C: 102 % of control
dose: 2000.0 mg/kg/injection, schedule: Q01DX Z (sc), vehicle: steriod suspending solution
  T/C: 100 % of control

## C[C@]12CCC(=O)C=C1CC[C@@H]1[C@@H]2C(=O)C[C@@]2(C)[C@H]1CC[C@]2(O)C(=O)CO
dose: 6.25 mg/kg/injection, schedule: Q01DX Z (sc), vehicle: steriod suspending solution
  T/C: 103 % of control
dose: 12.5 mg/kg/injection, schedule: Q01DX Z (sc), vehicle: steriod suspending solution
  T/C: 102 % of control
dose: 25.0 mg/kg/injection, schedule: Q01DX Z (sc), vehicle: steriod suspending solution
  T/C: 123 % of control and 102 % of control
dose: 50.0 mg/kg/injection, schedule: Q01DX Z (sc), vehicle: steriod suspending solution
  T/C: 111 % of control
dose: 100.0 mg/kg/injection, schedule: Q01DX Z (sc), vehicle: steriod suspending solution
  T/C: 116 % of control

## O=P1(N(CCCl)CCCl)NCCCO1 (stereo not given)
dose: 3.12 mg/kg/injection, schedule: Q01DX Z (ip), vehicle: saline
  T/C: 110 % of control
dose: 6.25 mg/kg/injection, schedule: Q01DX Z (ip), vehicle: saline
  T/C: 119 % of control
[1]
  T/C: 102 % of control
dose: 11.3 mg/kg/injection, schedule: Q01DX010 (ip), vehicle: saline
  T/C: 113 % of control and 117 % of control (2×)
dose: 22.5 mg/kg/injection, schedule: Q01DX010 (ip), vehicle: saline
  T/C: 107 % of control and 120 % of control and 121 % of control
[2]
  T/C: 105 % of control and 107 % of control
dose: 90.0 mg/kg/injection, schedule: Q01DX010 (ip), vehicle: saline
  T/C: 105 % of control and 90 % of control
dose: 100.0 mg/kg/injection, schedule: Q01DX Z (ip), vehicle: saline
  T/C: 115 % of control
dose: 180.0 mg/kg/injection, schedule: Q01DX010 (ip), vehicle: saline
  T/C: 87 % of control

## Cn1cc(NC(=O)c2cc(NC(=O)CN=C(N)N)cn2C)cc1C(=O)NCCC(=N)N
[1]
  T/C: 102 % of control
dose: 12.5 mg/kg/injection, schedule: Q01DX Z (ip), vehicle: saline
  T/C: 100 % of control
dose: 25.0 mg/kg/injection, schedule: Q01DX Z (ip), vehicle: saline
  T/C: 92 % of control

## COc1cc2c(cc1I)-c1c(cc(OC)c(OC)c1OC)CC[C@@H]2NC(C)=O
[2]
  T/C: 120 % of control
dose: 67.0 mg/kg/injection, schedule: Q01DX010 (ip), vehicle: saline
  T/C: 115 % of control
dose: 100.0 mg/kg/injection, schedule: Q01DX010 (ip), vehicle: saline
  T/C: 115 % of control
dose: 150.0 mg/kg/injection, schedule: Q01DX010 (ip), vehicle: saline
  T/C: 111 % of control and 115 % of control
dose: 225.0 mg/kg/injection, schedule: Q01DX010 (ip), vehicle: saline
  T/C: 100 % of control

## Oc1cc(CN(CCCl)CCCl)c(O)cc1CN(CCCl)CCCl
dose: 0.06 mg/kg/injection, schedule: Q01DX Z (sc), vehicle: steriod suspending solution
  T/C: 101 % of control
dose: 0.12 mg/kg/injection, schedule: Q01DX Z (sc), vehicle: steriod suspending solution
  T/C: 109 % of control
dose: 0.24 mg/kg/injection, schedule: Q01DX Z (sc), vehicle: steriod suspending solution
  T/C: 114 % of control
dose: 0.49 mg/kg/injection, schedule: Q01DX Z (sc), vehicle: steriod suspending solution
  T/C: 172 % of control
dose: 0.63 mg/kg/injection, schedule: Q01DX010 (ip), vehicle: saline
  T/C: 110 % of control and 100 % of control
dose: 0.99 mg/kg/injection, schedule: Q01DX Z (sc), vehicle: steriod suspending solution
  T/C: 175 % of control
dose: 1.25 mg/kg/injection, schedule: Q01DX010 (ip), vehicle: saline
  T/C: 120 % of control and 104 % of control
dose: 2.5 mg/kg/injection, schedule: Q01DX010 (ip), vehicle: saline
  T/C: 122 % of control
dose: 3.75 mg/kg/injection, schedule: Q01DX Z (sc), vehicle: steriod suspending solution
  T/C: 104 % of control
dose: 5.0 mg/kg/injection, schedule: Q01DX010 (ip), vehicle: saline
  T/C: 115 % of control and 118 % of control
dose: 7.5 mg/kg/injection, schedule: Q01DX Z (sc), vehicle: steriod suspending solution
  T/C: 110 % of control and 101 % of control

## O=NN(CCCl)C(=O)NCCCl
dose: 1.0 mg/kg/injection, schedule: Q01DX Z (ip), vehicle: saline
  T/C: 95 % of control
dose: 2.0 mg/kg/injection, schedule: Q01DX Z (ip), vehicle: saline
  T/C: 112 % of control and 96 % of control
dose: 3.13 mg/kg/injection, schedule: Q01DX010 (ip), vehicle: saline
  T/C: 220 % of control
dose: 4.0 mg/kg/injection, schedule: Q01DX Z (ip), vehicle: saline
  T/C: 114 % of control and 116 % of control
dose: 6.25 mg/kg/injection, schedule: Q01DX010 (ip), vehicle: saline
  T/C: 290 % of control and 300 % of control
dose: 8.0 mg/kg/injection, schedule: Q01DX Z (ip), vehicle: saline
  T/C: 118 % of control
dose: 12.5 mg/kg/injection, schedule: Q01DX010 (ip), vehicle: saline
  T/C: 150 % of control
dose: 16.0 mg/kg/injection, schedule: Q01DX Z (ip), vehicle: saline
  T/C: 92 % of control

## CN(Cc1cnc2nc(N)nc(N)c2n1)c1ccc(C(=O)N[C@@H](CCC(=O)O)C(=O)O)cc1
dose: 0.03 mg/kg/injection, schedule: Q01DX Z (ip), vehicle: other
  T/C: 160 % of control
dose: 0.06 mg/kg/injection, schedule: Q01DX Z (ip), vehicle: other
  T/C: 115 % of control
dose: 0.07 mg/kg/injection, schedule: Q01DX Z (ip), vehicle: other
  T/C: 113 % of control
dose: 0.15 mg/kg/injection, schedule: Q01DX Z (ip), vehicle: other
  T/C: 117 % of control and 122 % of control
dose: 0.19 mg/kg/injection, schedule: Q01DX010 (ip), vehicle: other
  T/C: 110 % of control and 120 % of control and 121 % of control
dose: 0.24 mg/kg/injection, schedule: Q01DX Z (ip), vehicle: other
  T/C: 189 % of control
dose: 0.31 mg/kg/injection, schedule: Q01DX Z (ip), vehicle: other
  T/C: 111 % of control and 117 % of control
dose: 0.38 mg/kg/injection, schedule: Q01DX010 (ip), vehicle: other
  T/C: 123 % of control
dose: 0.47 mg/kg/injection, schedule: Q01DX Z (ip), vehicle: other
  T/C: 226 % of control
dose: 0.62 mg/kg/injection, schedule: Q01DX Z (ip), vehicle: other
  T/C: 110 % of control and 113 % of control
dose: 0.75 mg/kg/injection, schedule: Q01DX010 (ip), vehicle: other
  T/C: 150 % of control and 160 % of control and 170 % of control
dose: 0.94 mg/kg/injection, schedule: Q01DX Z (ip), vehicle: other
  T/C: 92 % of control
dose: 1.5 mg/kg/injection, schedule: Q01DX010 (ip), vehicle: other
  T/C: 187 % of control and 207 % of control and 210 % of control
dose: 1.88 mg/kg/injection, schedule: Q01DX Z (ip), vehicle: other
  T/C: 98 % of control
dose: 3.0 mg/kg/injection, schedule: Q01DX010 (ip), vehicle: other
  T/C: 106 % of control and 108 % of control and 105 % of control

## COS(C)(=O)=O
dose: 1.6 mg/kg/injection, schedule: Q01DX Z (ip), vehicle: water
  T/C: 94 % of control
dose: 3.1 mg/kg/injection, schedule: Q01DX Z (ip), vehicle: water
  T/C: 99 % of control
dose: 6.25 mg/kg/injection, schedule: Q01DX Z (ip), vehicle: water
  T/C: 120 % of control and 103 % of control
dose: 12.5 mg/kg/injection, schedule: Q01DX Z (ip), vehicle: water
  T/C: 109 % of control
dose: 25.0 mg/kg/injection, schedule: Q01DX010 (ip), vehicle: saline
  T/C: 95 % of control
dose: 25.0 mg/kg/injection, schedule: Q01DX Z (ip), vehicle: water
  T/C: 112 % of control and 98 % of control
dose: 50.0 mg/kg/injection, schedule: Q01DX010 (ip), vehicle: saline
  T/C: 115 % of control
dose: 50.0 mg/kg/injection, schedule: Q01DX Z (ip), vehicle: water
  T/C: 90 % of control
dose: 100.0 mg/kg/injection, schedule: Q01DX Z (ip), vehicle: water
  T/C: 91 % of control
